How the values were obtained:
Format in all cases: cell-based
[1] = test system: HT1080-EGFP (human/fibrosarcoma) cells; test: Evaluation of knockdown effect (GFP assay), Cell experiment 1; conditions: lipid nanoparticle containing siRNA against EGFP; fluorescence intensity with control cells without lipid nanoparticle set at 100
Method: A cell experiment was carried out by using HT1080-EGFP (human/fibrosarcoma) cells in order to evaluate lipid nanoparticles encapsulating an siRNA produced by using the lipids of the Examples and the Comparative Examples. These cells are cells provided with a green fluorescent protein gene (EGFP). The expression of EGFP can be easily confirmed by measuring the fluorescence intensity of a solution in which the cells are lysed, and thus by acting lipid nanoparticles encapsulating an siRNA that suppresses the expression of EGFP and observing any decrease in fluorescence intensity, the performance of the lipid nanoparticles used can be evaluated. Hereinafter, the procedure of the cell experiment will be shown.
A. Provision of Cells • (i) A liquid medium (DMEM/Ham's F12, FBS+, P/S+) (FBS: fetal bovine serum, P/S: antibiotic) was taken out from a refrigerator and temperature-controlled in an incubator set at 37° C. • (ii) A cryotube containing the cells was taken out from a −80° C. freezer and thawed at once in an incubator set at 37° C. • (iii) A stock solution of the thawed cells was collected in a capped test tube. • (iv) The tube containing the cells was washed with the liquid medium, and the wash was also collected in the test tube. • (v) The tube was subjected to a centrifuge to precipitate the cells. • (vi) The supernatant was aspirated, and the liquid medium was added and gently tapped to disperse the cells. • (vii) A small amount of the cells-dispersed liquid medium was collected, and the number of cells was observed and counted under a microscope. • (viii) The cells were seeded in a 24-well plate such that the number of cells was 2×10^4 cells per well. For the plate for an LDH assay described later, the cells were seeded in a 96-well plate such that the number of cells was 4×10^3 cells per well. • (ix) The 24-well plate or the 96-well plate was placed in an incubator, and the cells were cultured for 24 hours under conditions of 37° C. and 5% CO2.
The produced lipid nanoparticles were introduced into cells. • (i) Fetal bovine serum (FBS) was added to a liquid medium (FBS-, P/S-) temperature-controlled as in (i) of A above, in such a way as to reach 10%. • (ii) A 24-well plate was taken out from an incubator, and the liquid medium supernatant in the 24-well plate was aspirated and washed with phosphate buffered saline (PBS). • (iii) 400 μL of the liquid medium produced in (i) above was added to the washed 24-well plate. In addition, 100 μL of an LNP solution having an adjusted concentration was added. • (iv) The 24-well plate was placed in the incubator, and the cells were cultured (for 24 hours). • (v) After 24 hours, the liquid medium supernatant in the 24-well plate was aspirated, and 500 μL of a liquid medium containing 10% FBS (FBS+/P/S+) was added. • (vi) The 24-well plate was placed in the incubator, and the cells were cultured for 24 hours under conditions of 37° C. and 5% CO2.
By carrying out a GFP assay, the EGFP expression level in cells was measured to evaluate the effect of knocking down the green fluorescent protein gene (EGFP) by lipid nanoparticles. • (i) A 24-well plate was taken out from an incubator and washed with PBS. • (ii) A 1% octylglucoside solution to which a protease inhibitor was added was added in order to disrupt cells. Stirring with a pipette lysed the cells. • (iii) The cell lysate was transferred to an Eppendorf tube and subjected to a centrifuge. • (iv) 150 μL of the supernatant was collected and added to a plate for fluorescence measurement. • (v) The fluorescence intensity was measured under conditions of an excitation wavelength of 485 nm and a fluorescence wavelength of 535 nm with a plate reader (manufactured by TECAN, Infinite M200). The fluorescence intensity was calculated with the fluorescence intensity of control cells to which no lipid nanoparticle was added set at 100.

HEK293T cells = test: Evaluation of protein expression effect (luciferase luminescence), Cell experiment 2; conditions: lipid nanoparticle containing mRNA, 100 ng mRNA/20 μL per well, 24 hours, amount of luminescence as index
Method: (§1) For lipids (Ia), (Ib), and (Ie) of Examples 1, 2, and 5, a cell experiment was carried out by using HEK293T cells and NIH3T3 cells in order to evaluate lipid nanoparticles encapsulating an mRNA. By transfecting the cells with lipid nanoparticles and measuring the amount of a predetermined protein produced, the performance of the lipid nanoparticles used can be evaluated. Hereinafter, the procedure of the cell experiment will be shown.
(§2) A. Seeding of Cells • (i) A liquid medium (DMEM High glucose, FBS+, P/S+) was temperature-controlled in an incubator set at 37° C. • (ii) A cryotube containing cells was taken out from a −80° C. freezer and thawed at once in the incubator set at 37° C. • (iii) A test tube was subjected to a centrifuge to precipitate the cells. • (iv) The supernatant was aspirated, and the liquid medium was added and gently tapped to disperse the cells. • (v) A small amount of the cells-dispersed liquid medium was collected, and the number of cells was observed and counted under a microscope. • (vi) The cells were seeded in three 24-well black plates such that the number of cells was 1×10^4 cells per well. The 24-well black plates were placed in an incubator, and the cells were cultured for 24 hours under conditions of 37° C. and 5% CO2.
(§3) B. Transfection • (i) A lipid nanoparticle-containing solution including an mRNA was concentrated such that the mRNA concentration was 100 ng/20 μL (=0.005 μg/μL). • (ii) A liquid medium (DMEM High glucose, FBS-, P/S-) and FBS were warmed to 37° C., required amounts of the liquid medium and FBS were mixed (FBS concentration of liquid medium at this time: 12.5%), and the prepared liquid medium was filter-sterilized through a 0.22 μm filter. • (iii) The liquid medium supernatant in the 24-well black plates in which the cells were cultured was aspirated and 80 μL per well of the prepared liquid medium was added. • (iv) 20 μL per well of RFW and the lipid nanoparticle-containing solution adjusted to the above concentration was added. • (v) The 24-well black plates were placed in an incubator, and the cells were cultured for 24 hours under conditions of 37° C. and 5% CO2.
(§4) C. Evaluation of Protein Expression Effect (Detection of Gaussia Luciferase (GLuc))
(§5) Evaluation of the protein expression effect was carried out by using Gaussia Luciferase Assay Kit manufactured by Thermo Scientific. • (i) The cells cultured in B. (v) above were taken out from the incubator and allowed to stand at room temperature. • (ii) 20 μL of the supernatant in the plates was collected and added to a fresh 96-well white plate. • (iii) 100× Coelenterazine and Gaussia Glow Assay Buffer attached to the kit were returned to room temperature and mixed at 1:100 to prepare a solution. The prepared solution was added to the supernatant at 50 μL per well by using a multipipette. • (iv) The plate was shielded from light with aluminum foil, allowed to stand for 10 minutes, and then measured for the amount of luminescence with a plate reader (manufactured by TECAN, Infinite M200) (measurement time: 2 seconds), and the protein expression level was calculated by using the resulting amount of luminescence as an index.

NIH3T3 cells = test: as above; conditions: lipid nanoparticle containing mRNA, 100 ng mRNA/20 μL per well, 24 hours, amount of luminescence as index
Method: as §1, §2, §3, §4, §5

CCCCCCCC/C=C\CCCCCCCCC(CCCCCCC/C=C\CCCCCCCC)OC(=O)C(CC(=O)O)NC(=N)N (stereo not shown) [Comparative Example 2, 3-guanidino-4-(((9Z,27Z)-hexatriaconta-9,27-dien-18-yl)oxy)-4-oxobutanoic acid, reference compound]
GFP Assay [1]: 97

CCCCCCCC/C=C\CCCCCCCCC(CCCCCCC/C=C\CCCCCCCC)OC(=O)C(CCC(=O)O)NC(=N)N (stereo not shown) [Comparative Example 3, 4-guanidino-5-(((9Z,27Z)-hexatriaconta-9,27-dien-18-yl)oxy)-5-oxopentanoic acid, reference compound]
GFP Assay [1]: 102

CCCCCCCC/C=C\CCCCCCCCC(CCCCCCC/C=C\CCCCCCCC)OC(=O)C(CC(=O)O)NC(=O)C(N)CCCNC(=N)N (stereo not shown) [Example 1, 3-(2-amino-5-guanidinopentanamido)-4-(((9Z,27Z)-hexatriaconta-9,27-dien-18-yl)oxy)-4-oxobutanoic acid]
GFP Assay [1]: 28
Protein expression level (HEK293T cells): 100,000
Protein expression level (NIH3T3 cells): 5,000

CCCCCCCC/C=C\CCCCCCCCC(CCCCCCC/C=C\CCCCCCCC)OC(=O)C(CCC(=O)O)NC(=O)C(N)CCCNC(=N)N (stereo not shown) [Example 2, 4-(2-amino-5-guanidinopentanamido)-5-(((9Z,27Z)-hexatriaconta-9,27-dien-18-yl)oxy)-5-oxopentanoic acid]
GFP Assay [1]: 24
Protein expression level (HEK293T cells): 800,000
Protein expression level (NIH3T3 cells): 25,000

CCCCCCCC/C=C\CCCCCCCCC(CCCCCCC/C=C\CCCCCCCC)OC(=O)C(CO)NC(=O)C(N)CCCNC(=N)N [Example 4, (9Z,27Z)-hexatriaconta-9,27-dien-18-yl (2S)-2-((S)-2-amino-5-guanidinopentanamido)-3-hydroxypropionate]
GFP Assay [1]: 7

CCCCCCCC/C=C\CCCCCCCCC(CCCCCCC/C=C\CCCCCCCC)OC(=O)C(NC(=O)C(N)CCCNC(=N)N)C(C)O [Example 5, (9Z,27Z)-hexatriaconta-9,27-dien-18-yl (2S)-2-((S)-2-amino-5-guanidinopentanamido)-3-hydroxybutanoate]
GFP Assay [1]: 22
Protein expression level (HEK293T cells): 100,000
Protein expression level (NIH3T3 cells): 60,000

CCCCCCCC/C=C\CCCCCCCCC(CCCCCCC/C=C\CCCCCCCC)OC(=O)[C@H](CCSC)NC(=O)[C@@H](N)CCCNC(=N)N (stereo partly shown) [Example 6, (9Z,27Z)-hexatriaconta-9,27-dien-18-yl arginylmethioninate]
GFP Assay [1]: 40
